Read-outs that look alike come from different tables or passages of the source.
Legend:
[1] = test system: PrP^Sc in nondividing ScN2a-cl3 cells; type: cell-based, mouse; conditions: read-out: Non-Dividing ELISA EC50 (μM) Mean (n = 3); ScN2a-c13 non-dividing cells; mean n = 3
N2a-cl3 cells = assay: cells; conditions: Mus musculus, N2a-cl3, read-out: Dividing Calcein EC50 (μM) Mean (n = 3)
[2] = test system: PrP^Sc in dividing ScN2a-cl3 cells; type: cell-based, mouse; design: Dividing ELISA pEC50 (μM) 1st Expt. / Dividing ELISA pEC50 (μM) 2nd Expt. / Dividing ELISA pEC50 (μM) 3rd Expt. / Dividing ELISA pEC50 (μM) Mean: unit not given here
[3] = Hepatic microsomal stability, mouse; conditions: mouse liver microsomes; for Hepatic Extraction Ratio Mouse: predicted hepatic extraction; for half-life at 1 μM: mouse, pH 7.4
PrP^C in T98G cells = type: cell-based, human; conditions: read-out: EC50 (μM) ELISA potency, PrP^C in T98G cells
[4] = Hepatic microsomal stability, human; conditions: human liver microsomes; for Hepatic Extraction Ratio Human: predicted hepatic extraction; for half-life at 1 μM: human, pH 7.4
[5] = ScN2a-cl3 dividing cells, 1st determination
[6] = ScN2a-cl3 dividing cells, 2nd determination
[7] = ScN2a-cl3 dividing cells, 3rd determination
[8] = ScN2a-cl3 dividing cells, mean of three determinations
[9] = read-out: Dividing ELISA EC50 (μM) 1st Expt., ScN2a-cl3 dividing cells, 1st determination
[10] = read-out: Dividing ELISA EC50 (μM) 2nd Expt., ScN2a-cl3 dividing cells, 2nd determination
[11] = read-out: Dividing ELISA EC50 (μM) 3rd Expt., ScN2a-cl3 dividing cells, 3rd determination
[12] = read-out: Dividing ELISA EC50 (μM) Mean, ScN2a-cl3 dividing cells, mean of three determinations
[13] = Table 29, 2-AMT analogs tested for potency, usually n = 3 or more

SMILES	melting point [°C]	EC50 ([2]; AMT analogs tested for potency) [µM]	Hepatic Extraction Ratio Mouse [3]	half-life at 1 μM [3] [min]	EC50 (PrP^C in T98G cells) [µM]	Hepatic Extraction Ratio Human [4]	half-life at 1 μM [4] [min]	also measured
COc1ccc(-c2csc(N(C(C)=O)c3cc4ccccc4cn3)n2)cc1OC [compound 50, N-[4-(3,4-dimethoxyphenyl)-thiazol-2-yl]-N-isoquinolin-3-yl-acetamide]	164 to 165							EC50 [1]: > 10 µM; EC50 (N2a-cl3 cells): > 10 µM; Dividing ELISA pEC50 (μM) 1st Expt. [2, 5]: 7.04; Dividing ELISA pEC50 (μM) 2nd Expt. [2, 6]: 7.05; Dividing ELISA pEC50 (μM) 3rd Expt. [2, 7]: 7.19; Dividing ELISA pEC50 (μM) Mean [2, 8]: 7.09; EC50 [2, 9]: 0.091 µM; EC50 [2, 10]: 0.089 µM; EC50 [2, 11]: 0.065 µM; EC50 [2, 12]: 0.082 µM
COc1ccc(-c2csc(Nc3ccc4ccccc4c3)n2)cc1OC [compound 19, [4-(3,4-dimethoxyphenyl)-thiazol-2-yl]-naphthalen-2-yl-amine]	221 to 224							EC50 [1]: > 32 µM; EC50 (N2a-cl3 cells): > 32 µM; Dividing ELISA pEC50 (μM) 1st Expt. [2, 5]: 6.36; Dividing ELISA pEC50 (μM) 2nd Expt. [2, 6]: 6.50; Dividing ELISA pEC50 (μM) 3rd Expt. [2, 7]: 6.38; Dividing ELISA pEC50 (μM) Mean [2, 8]: 6.41; EC50 [2, 9]: 0.436 µM; EC50 [2, 10]: 0.317 µM; EC50 [2, 11]: 0.413 µM; EC50 [2, 12]: 0.389 µM
COc1ccc(Nc2nc(-c3ccncc3)cs2)nc1 [IND119, (5-Methoxy-pyridin-2-yl)-(4-pyridin-4-yl-thiazol-2-yl)-amine]	213 to 214	1.32						
Cc1ccnc(Nc2nc(-c3ccc(OC(F)(F)F)cc3)cs2)c1 [IND78, (4-Methyl-pyridin-2-yl)-[4-(4-trifluoromethoxy-phenyl)-thiazol-2-yl]-amine]	275 to 282	> 32						EC50 [2, 13]: > 32 µM
COc1ccc(Nc2nc(-c3cc4ccccc4o3)cs2)nc1 [IND121, (4-Benzofuran-2-yl-thiazol-2-yl)-(5-methoxy-pyridin-2-yl)-amine]	185 to 186	1.74						
CCOc1ccccc1C1C(C#N)=C(N)Oc2cc(N(C)C)ccc21 (stereo not shown) [IND8541]			0.97	1.71	0.155	0.77	20.3	
COc1ccc(Nc2nc(-c3ccc(-c4ccccc4)cc3)cs2)nc1 [IND122, (4-Biphenyl-4-yl-thiazol-2-yl)-(5-methoxy-pyridin-2-yl)-amine]	212 to 213	0.432						
CCOc1ccc(Nc2nc(-c3c(C)nc4sccn34)cs2)cc1 [IND126328]			0.86	9.64	0.065	0.76	21.9	
Cc1c(C(=O)OC(C)C)[nH]c2c1C(=O)CC(c1cccs1)C2 (stereo not shown) [IND116088]			0.90	6.88	0.303	0.74	23.9	
COc1cc2c(cc1OC)-c1nc(Nc3ccc(C)cn3)sc1C2 [compound 39, (5,6-Dimethoxy-8H-indeno-[1,2-d]thiazol-2-yl)-(5-methylpyridin-2-yl)-amine]								EC50 [1]: > 32 µM; EC50 (N2a-cl3 cells): > 32 µM; Dividing ELISA pEC50 (μM) 1st Expt. [2, 5]: 5.46; Dividing ELISA pEC50 (μM) 2nd Expt. [2, 6]: 5.23; Dividing ELISA pEC50 (μM) 3rd Expt. [2, 7]: 5.13; Dividing ELISA pEC50 (μM) Mean [2, 8]: 5.27; EC50 [2, 9]: 3.45 µM; EC50 [2, 10]: 5.93 µM; EC50 [2, 11]: 7.38 µM; EC50 [2, 12]: 5.59 µM
Cc1ccnc(Nc2nc(-c3ccc4c(c3)OCCO4)cs2)c1 [IND57, [4-(2,3-Dihydro-benzo[1,4]dioxin-6-yl)-thiazol-2-yl]-(4-methyl-pyridin-2-yl)-amine]	230 to 240	> 10						EC50 [2, 13]: > 10 µM
COc1ccc(S(=O)(=O)N2CCOc3ccccc32)cc1 [IND116071]			0.98	1.53	1.71	0.94	4.53	
Cc1ccc(Nc2nc(-c3cccc(C#N)c3)cs2)nc1 [IND38, 3-[2-(5-Methyl-pyridin-2-ylamino)-thiazol-4-yl]-benzonitrile]	268 to 272	2.29						EC50 [2, 13]: 2.29 µM

Source: US20140329863A1 (priority 2011, published 2014)
